Assay results: the supplement of paper PMC10307832

Legend:
Test in all cases: relative viability (nuclei count vs DMSO), 5 days (fraction); higher = more cells survive
Obatoclax + Trametinib = compound: COC1=CC(c2cc3ccccc3[nH]2)=N/C1=C\c1[nH]c(C)cc1C [Obatoclax] + CC(=O)Nc1cccc(-n2c(=O)n(C3CC3)c(=O)c3c(Nc4ccc(I)cc4F)n(C)c(=O)c(C)c32)c1 [Trametinib] (partner 0.02 µM)
Summary of the method: (§1)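 Dosing by pin tool came one day after lung cancer cell lines were seeded in 1536-well plates, using either one drug or a fixed anchor-drug dose plus five library-drug doses (not always all listed) in √10 steps. After 5 days, nuclei were counted on 4× images. Relative viability is treated-well nuclei count divided by vehicle-well nuclei count, and values are medians of duplicate plates.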

Bortezomib + Lapatinib = compound: CC(C)C[C@H](NC(=O)[C@H](Cc1ccccc1)NC(=O)c1cnccn1)B(O)O [Bortezomib] + CS(=O)(=O)CCNCc1ccc(-c2ccc3ncnc(Nc4ccc(OCc5cccc(F)c5)c(Cl)c4)c3c2)o1 [Lapatinib] (partner 2 µM)
Summary of the method: as §1

Obatoclax + Dasatinib = compound: COC1=CC(c2cc3ccccc3[nH]2)=N/C1=C\c1[nH]c(C)cc1C [Obatoclax] + Cc1nc(Nc2ncc(C(=O)Nc3c(C)cccc3Cl)s2)cc(N2CCN(CCO)CC2)n1 [Dasatinib] (partner 0.075 µM)
Summary of the method: as §1

Obatoclax + AZD7762 = compound: COC1=CC(c2cc3ccccc3[nH]2)=N/C1=C\c1[nH]c(C)cc1C [Obatoclax] + NC(=O)Nc1cc(-c2cccc(F)c2)sc1C(=O)N[C@H]1CCCNC1 [AZD7762] (partner 0.2 µM)
Summary of the method: as §1

Cell Line	relative viability (Obatoclax + Trametinib; first compound 0.01 µM)	relative viability (Obatoclax + Trametinib; first compound 0.1 µM)	relative viability (Obatoclax + Trametinib; first compound 0.3162 µM)	relative viability (Obatoclax + Trametinib; first compound 1 µM)	relative viability (Bortezomib + Lapatinib; first compound 0.0002 µM)	relative viability (Bortezomib + Lapatinib; first compound 0.000632 µM)	relative viability (Bortezomib + Lapatinib; first compound 0.002 µM)	relative viability (Bortezomib + Lapatinib; first compound 0.006325 µM)	relative viability (Bortezomib + Lapatinib; first compound 0.02 µM)	relative viability (Obatoclax + Dasatinib; first compound 0.01 µM)	relative viability (Obatoclax + Dasatinib; first compound 0.03162 µM)	relative viability (Obatoclax + Dasatinib; first compound 0.1 µM)	relative viability (Obatoclax + Dasatinib; first compound 0.3162 µM)	relative viability (Obatoclax + Dasatinib; first compound 1 µM)	relative viability (Obatoclax + AZD7762; first compound 0.01 µM)	relative viability (Obatoclax + AZD7762; first compound 0.1 µM)	relative viability (Obatoclax + AZD7762; first compound 0.3162 µM)	relative viability (Obatoclax + AZD7762; first compound 1 µM)	relative viability (Obatoclax + Trametinib; first compound 0.03162 µM)	relative viability (Obatoclax + AZD7762; first compound 0.03162 µM)
EKVX	0.321	0.464	0.307	0.292	0.205	0.261	0.208	0.204	0.0816	0.567	0.491	0.539	0.594	0.522	0.614	0.348	0.756	0.706	–	–
EMC-BAC-2	0.959	–	0.89	0.557	0.902	0.923	0.966	0.652	0.153	0.357	0.325	0.255	0.264	0.284	1.12	0.963	1.02	0.874	0.937	1.11
EPLC-272H	0.306	0.352	0.252	0.301	–	–	1.03	0.671	0.167	0.36	0.31	0.342	0.264	0.147	0.236	0.155	0.192	0.229	0.301	0.145
H3255	0.561	–	0.631	0.615	0.261	0.209	0.24	0.191	0.179	0.301	0.323	0.422	0.348	0.302	0.874	0.725	0.785	0.762	0.629	0.848
HARA	0.658	0.83	0.768	0.705	0.647	0.527	0.73	0.0694	0.0797	0.226	0.233	0.335	0.358	0.255	0.379	0.397	0.173	0.244	0.926	0.237
HCC-15	0.43	0.401	0.353	0.411	0.824	0.943	0.817	0.38	0.0867	0.574	0.589	0.533	0.626	0.368	1.04	1.21	1.25	1.36	0.297	1.34
HCC-44	1.09	0.989	1.1	0.994	0.977	1.02	0.953	0.658	0.118	–	–	–	–	–	0.95	1.14	1.01	0.978	1.02	1.03
HCC-78	0.774	1.03	0.547	0.898	0.899	0.791	0.715	0.826	0.153	0.48	0.406	0.419	0.324	0.418	0.745	0.694	0.633	0.596	0.717	0.669
HCC-366	0.348	0.321	0.245	0.228	0.861	1.01	1.03	0.875	0.0176	0.667	0.574	0.39	0.574	0.533	0.289	0.184	0.227	0.243	0.323	0.218
